In patent publication US12582706B2, “Tolerogenic antigen presenting cells” (Cell4Cure AB, priority 2019, dated 2026):

Assays:
CD4^+ T cells [1] = assay: Capacity of DCs to induce CD25^hiFoxp3^+ Tregs in time-extended MLR; assay type: cell-based, human; settings: Example 13, FIG. 13(H); compared to control DCs
Experimental: (§1) CD14^+ monocytes were cultured at 1.25×10^6 cells/mi for 7 days in GMP DC Medium (CellGenix, Freiburg, Germany) containing HEPES, GlutaMAX and Penicillin-Streptomycin solution (Thermo Fisher, Waltham, MA) in the presence of granulocyte-macrophage colony-stimulating factor (GM-CSF; 100 ng/ml; PeproTech, London, UK) and interleukin-4 (IL-4; 100 ng/ml; PeproTech). Cells were replenished on day 3 with fresh medium and cytokines. Control DCs were differentiated in GM-CSF and IL-4 without addition of any further compounds and optionally further were treated with lipopolysaccharide (LPS; 0.5 ug/ml; Sigma-Aldrich, Saint Louise, MO) or a pro-inflammatory cytokine cocktail consisting of TNFalpha (10 ng/ml; PeproTech), IL-1 beta (10 ng/ml; PeproTech), and prostaglandin E2 (PGE2; 1 ug/ml; Sigma) on day 6 to generate stimulated immunogenic DCs. Tolerogenic DCs (tolDCs) were generated by treatment with various tolerogenic compounds: AhR agonist “C1” (C1; 20 nM; IMA-06201; Immunahr A B, Lund, Sweden) on days 0 and 3, TGFbeta1 (10 or 20 ng/ml; PeproTech) on day 3, and retinoic acid (2 uM; Sigma-Aldrich) on day 6. Control tolDC for comparison were established by treatment with Dexamethasone (Dex; 100 nM; Sigma-Aldrich) and Vitamin D3 (VitD3; 100 nM, StemCell Technologies) on day 3. Phenotypic stability of TolDCs was investigated by addition of LPS (0.5 ug/ml) or a pro-inflammatory cytokine cocktail consisting of TNFalpha (10 ng/ml), IL-1beta (10 ng/ml), PGE2 (1 ug/ml), and for Example 24 also IL-6 (10 ng/ml), for the last 24 hours of culture. On day 7, DCs were harvested and washed extensively before phenotyping and functional assays were performed.
In order to analyse the T cell stimulatory capacity of the generated DC populations, allogeneic MLRs were performed. DC/T cell cultures were carried out in complete medium: RPMI-1640 (Thermo Fisher) containing fetal bovine serum (FBS; 10%; Thermo Fisher), HEPES, GlutaMAX and Penicillin-Streptomycin solution. […] Proliferation was determined by incorporation of ^3H-thymidine for the last 18 hours of culture. […]

DCs [2] = assay: DC expression of CD86 (flow cytometry); assay type: cell-based, human
Experimental: (§2) CD14^+ monocytes were cultured at 1.25×10^6 cells/mi for 7 days in GMP DC Medium (CellGenix, Freiburg, Germany) containing HEPES, GlutaMAX and Penicillin-Streptomycin solution (Thermo Fisher, Waltham, MA) in the presence of granulocyte-macrophage colony-stimulating factor (GM-CSF; 100 ng/ml; PeproTech, London, UK) and interleukin-4 (IL-4; 100 ng/ml; PeproTech). Cells were replenished on day 3 with fresh medium and cytokines. […]
(§3) Cell surface expression was investigated using the following fluorescently labeled antibodies: CD11c (B-Ly6), CD83 (HB15e), CD86 (BU63), ILT3 (ZM4.1), CD141 (M80), GARP (7611), CD103 (B-Ly7), MERTK (590H11G1E3), BTLA (J168-540), CD49b (P1E6-05), HLA-G (87G), LAP (FNLAP), from BD Biosciences (Franklin Lakes, NJ), BioLegend (San Diego, CA) and Thermo Fisher. DCs were washed and resuspended in staining buffer (phosphate-buffered saline supplemented with 0.5% BSA and 2 mM EDTA) and incubated with antibody for 20 min followed by washing before acquisition on a MACSQuant 10 flow cytometer (Miltenyi Biotec) and analyzed using FlowJo software (BD Biosciences). […]

CD4^+ T cells [3] = assay: Capacity of DCs to induce T cell proliferation in allogeneic MLR (3H-thymidine); assay type: cell-based, human; settings: for induction of T cell proliferation (CPM): Example 13, FIG. 13(G), compared to control DCs; for effect on the tolerogenic effect of RA: Example 13, summary
Experimental: as §1
In order to analyse the T cell stimulatory capacity of the generated DC populations, allogeneic MLRs were performed. DC/T cell cultures were carried out in complete medium: RPMI-1640 (Thermo Fisher) containing fetal bovine serum (FBS; 10%; Thermo Fisher), HEPES, GlutaMAX and Penicillin-Streptomycin solution. T cells (10^5 cells/well) were cultured with DCs at a T cell: DC ratio of 10:1 for 5-7 days. Proliferation was determined by incorporation of ^3H-thymidine for the last 18 hours of culture. For determination of CD4^+CD49b^+LAG3^+ Tr1 cells, cells were phenotyped as described below. For determination of CD25^hiFoxp3^+ Treg induction, the T cells from the MLR cultures were rested for additionally 7 days in complete medium containing IL-2 (20 IU/ml; PeproTech) and then subjected to phenotyping as described below.
Control DCs were differentiated from CD14^+ monocytes by culturing in GM-CSF and IL-4 for 7 days. Control DCs were either unstimulated or stimulated with LPS which was added on day 6 to generate immunogenic control DCs. […] TolDCs for comparison were established by treatment with Dex at 100 nM and VitD3 at 100 nM on day 3. On day 6, some of the DCs were treated with LPS (FIG. 5 (A); black bars) or a pro-inflammatory cytokine cocktail consisting of TNFalpha, IL-1beta and PGE2 (FIG. 5 (B); black bars) to test for phenotypical stability under various conditions. All cells were harvested on day 7 and cocultures with CD4^+ T cells were setup in an MLR setting at a T cell:DC ratio of 10:1. At the end of the 7-day cultures, proliferation of T cells was determined by ^3H-thymidine incorporation.
Various compounds were tested for their capacity to induce a tolerogenic phenotype in DCs. […] AhR agonist C1 (AhR ag) at 10 nM on days 0 and 3, TGFbeta at 10 ng/ml on day 3, and RA at 2 uM on day 6. […]

DCs [4] = assay: DC expression of CD83 (flow cytometry); assay type: cell-based, human; settings: Example 13, FIG. 13(A); C1 10 nM, TGFbeta 10 ng/ml, RA 2 uM; compared to control DCs
Experimental: as §2, §3

DCs [5] = assay: DC expression of CD103 (flow cytometry); assay type: cell-based, human; settings: Example 13, FIG. 13(E); compared to control DCs
Experimental: as §2, §3

human DCs = settings: cited from earlier work
DCs [6] = assay: DC expression of ILT3 (flow cytometry); assay type: cell-based, human; settings: Example 13, FIG. 13(C); compared to control DCs
Experimental: as §2, §3

DCs [7] = assay: DC frequency of CD141^+GARP^+ cells (flow cytometry); assay type: cell-based, human; settings: Example 13, FIG. 13(F); compared to control DCs
Experimental: as §2, §3

T cells = settings: Bakdash et al, 2015; cited from earlier work
DCs [8] = assay: DC tolerogenic index ILT3/CD86 (MFI ratio); assay type: cell-based, human; settings: Example 13, FIG. 13(D); compared to control DCs
Description: The optimal tolDCs should express both low levels of co-stimulatory molecules and high levels of tolerogenic molecules. Thus, to take into account the combined effect of this, the ratio between the expression levels of representative tolerogenic and co-stimulatory molecules could be depicted as a proxy for the tolerogenic capacity of a certain subset of tolDCs. FIGS. 4 (A) and (B) show such tolerogenic index, defined as the ILT3/CD86 expression (MFI) ratio, on DCs cultured under various conditions in the absence (FIG. 4 (A); grey bars) or presence of LPS (FIG. 4 (B); black bars).

[9] = during DC differentiation and maturation

Compound | induction of Tregs (CD4^+CD25^+Foxp3^+) (CD4^+ T cells [1]) | CD86 expression (MFI) on DCs (DCs [2]; Example 13, FIG. 13(B), compared to control DCs) | induction of T cell proliferation (CPM) (CD4^+ T cells [3]) | effect on the tolerogenic effect of RA (CD4^+ T cells [3]) | CD83 expression (MFI) on DCs (DCs [4]) | CD103 expression (MFI) on DCs (DCs [5]) | differentiation of naïve T cells into Treg cells by treated DCs (human DCs; Jurado-Manzano et al, 2017) | expression of the enzyme IDO (human DCs; [9]) | production of pro-inflammatory cytokines (human DCs; [9]) | CD86 expression (MFI) on DCs (DCs [2]; FIG. 2(B), whether or not stimulated with LPS, compared to corresponding control DCs) | ILT3 expression (MFI) on DCs (DCs [6]) | frequency of GARP^+CD141^+ cells (DCs [7]) | differentiation of Treg cells (T cells) | gut-homing specificity in T cells (T cells) | tolerogenic ratio (ILT3/CD86) (DCs [8])
CCN(C(=O)c1c(O)c2c(Cl)cccc2n(C)c1=O)c1ccccc1 [AhR agonist, N-ethyl-N-phenyl-5-chloro-1,2-dihydro-4-hydroxy-1-methyl-2-oxo-quinoline-3-carboxamide] | slightly more Tregs | lower expression | slightly more T cell proliferation | strengthens the tolerogenic effect of RA | lower expression | higher expression of CD103 | – | – | – | – | – | – | – | – | –
O=Cc1c2c(cc3c1=Nc1ccccc1-3)=Nc1ccccc1-2 [FICZ, 6-formylindolo[3,2-b]carbazole] | – | – | – | – | – | – | able to induce the differentiation | increased expression of the enzyme IDO | reduced production of pro-inflammatory cytokines such as IL-6 and TNF-alpha | – | – | – | – | – | –
CC1=C(/C=C/C(C)=C/C=C/C(C)=C/C(=O)O)C(C)(C)CCC1 [RA, all-trans retinoic acid] | more Tregs | – | less T cell proliferation | – | – | – | – | – | – | no resistance to upregulate CD86 | higher expression of ILT3 | higher frequency of GARP^+CD141^+ cells | enhance the differentiation of Foxp3^+ inducible as well as IL-10 producing Treg cells | induce gut-homing specificity in T cells | –
TGFbeta: transforming growth factor beta; TGFbeta1 (PeproTech) used in the examples | more Tregs | – | less T cell proliferation | strengthens the tolerogenic effect of RA | – | slightly higher | – | – | – | – | – | – | – | – | slightly higher
